Source: patent US20190117653A1, “SYSTEMS AND METHODS FOR TREATING BACTERIAL INFECTION” (priority 2016, published 2019)
Converted amounts (≈) assume the structure as drawn. Structures can show the parent of a compound that is named as a salt. Where two headings read alike, the source gives them in different places.

Legend:
[1] = pH value of a 1% solution in water; assay type: physicochemical
From the text: The molecular formulae for iclaprim and iclaprim mesylate are […] (base) and C20H26N4O6S (mesylate), and their relative molecular masses are 354.41 (base) or 450.52 (mesylate). […] One skilled in the art can readily obtain iclaprim or iclaprim mesylate, and synthesis of these compounds is described in U.S. Pat. No. 5,773,446, the entire disclosure of which is herein incorporated by reference.

mouse = test: acute IV toxicity in the mouse (lowest lethal dose); assay type: in vivo
male and female rats = conditions: both, rat, in vivo, 4 weeks
Experimental: A repeated-dose, 4-week toxicity study was conducted in male and female rats, where single, daily IV bolus doses up to 60 mg/kg were given. […] A 28-day toxicity study was also conducted in male and female marmosets, where iclaprim mesylate was infused intravenously over a 20-minute interval.

female mini-pigs = conditions: minipig, in vivo
[2] = system: S. aureus Clinical Isolate 825189; test: MIC with/without bovine pulmonary surfactant; assay type: cell-based; conditions: Staphylococcus aureus
Experimental: (§1) Antibacterial susceptibility testing was measured by JMI Labs (North Liberty, Iowa, USA). […] These clinical isolates were collected from US (n=4), Mexico (n=2), and Italy (n=1). Susceptibility testing was performed by broth microdilution in accordance with the Clinical and Laboratory and Standards Institute (CLSI) guidelines M07-A10 (2015) and the standard operating procedures at JMI laboratories. Minimum inhibitory concentrations (MICS) were based on CLSI criteria (2015). There are no published breakpoints for iclaprim. E. coli, K. pneumoniae, M. catarrhalis, E. faecalis, and S. aureus were tested in cation-adjusted Mueller-Hinton broth (CA-MHB). S. pneumoniae were tested in CA-MHB supplemented with 2.5-5% lysed horse blood, and H. influenza were tested in Haemophilus test medium. Quality control and interpretation of results were performed in accordance with CLSI M100-S26 (2016) methods. QC ranges for iclaprim were those approved by CLSI and published in M100-S26 (2016). Iclaprim and comparator antibiotic MIC results were within the CLSI published ranges against E. coli ATCC 25922, E. faecalis ATCC 29212, E. faecalis ATCC 33186, H. influenzae ATCC 49247, K. pneumoniae ATCC 700603 (ESBL phenotype), S. aureus ATCC 29213, and S. pneumoniae ATCC 49619. Isolates were tested with MIC panels (ThermoFisher Scientific, Cleveland, Ohio, USA) of comparator antibiotics (daptomycin and levofloxacin).
(§2) Because bovine pulmonary surfactant can introduce cloudiness to the MIC testing media, antimicrobial growth inhibition was also evaluated using the colorimetric metabolic indicator resazurin (Camlab Ltd., Cambridge, UK). […] S. pneumoniae panels were omitted from resazurin analysis because the color change was obscured by the lysed horse blood present in the test medium. Growth inhibition was then evaluated as a visible color change from blue (no growth) to pink (robust growth) and recorded as a MIC1z value.
(§3) The MICs of iclaprim, levofloxacin, and daptomycin were determined against Gram-positive and Gram-negative isolates.
(§4) A new vial of bovine pulmonary surfactant (BPS; Survanta®; Abbott Laboratories, Columbus, Ohio) was utilized for each independent experiment. Each vial was mixed thoroughly and a 100 μL aliquot was spread on an agar plate, which was incubated overnight to confirm sterility. […] The concentration of surfactant was expressed in terms of percent volume of Survanta® suspension, which consisted of phospholipid (25 mg/mL) and surfactant proteins (<1 mg/mL) in 0.9% sodium chloride solution (Goerke, 1998). MICs of daptomycin were determined in CAMHB with the Ca^2+ content adjusted to 50 mg/L.

S. aureus ATCC 29213 = test: MIC with/without bovine pulmonary surfactant; assay type: cell-based; conditions: Staphylococcus aureus
Experimental: as §1, §2, §3, §4

[3] = system: M. catarrhalis Clinical Isolate 893807; test: MIC with/without bovine pulmonary surfactant; assay type: cell-based; conditions: Moraxella catarrhalis, 2.5% v/v BPS, read-out: MIC, Resazurin: +BPS
Experimental: as §1, §2, §3, §4

[4] = system: M. catarrhalis Clinical Isolate 893806; test: MIC with/without bovine pulmonary surfactant; assay type: cell-based; conditions: Moraxella catarrhalis, 2.5% v/v BPS, read-out: MIC, Resazurin: +BPS
Experimental: as §1, §2, §3, §4

E. faecalis ATCC 29212 = test: MIC with/without bovine pulmonary surfactant; assay type: cell-based; conditions: Enterococcus faecalis, ATCC29212, 2.5% v/v BPS, read-out: MIC, Resazurin: +BPS
Experimental: as §1, §2, §3, §4

E. faecalis ATCC 33186 = test: MIC with/without bovine pulmonary surfactant; assay type: cell-based; conditions: Enterococcus faecalis, ATCC33186, 2.5% v/v BPS, read-out: MIC, Resazurin: +BPS
Experimental: as §1, §2, §3, §4

[5] = system: nosocomial pneumonia suspected or confirmed to be caused by Gram-positive pathogens; test: Phase 2 study in nosocomial pneumonia, iclaprim versus vancomycin; assay type: in vivo, human
From the text: This MIC effect of surfactant on daptomycin activity has been reported to be mediated by binding of surfactant components to specific structures present on antibiotics, such as the lipophilic side-chain of daptomycin (Silverman et al., 2005). […] Collectively, the current in vitro study and a previous Phase 2 study support that iclaprim could be a potential treatment for pneumonia, including nosocomial pneumonia caused by susceptible and multidrug resistant Gram-positive bacteria.

S. aureus strain AH1252 = test: neutropenic rat lung infection model; assay type: in vivo, Staphylococcus aureus
Experimental: S. aureus strain AH1252, a thymidine knockout of the MRSA wild type AW6 strain, was utilized for this study. The bacterial strain was diluted in a 2% alginate buffer, which was added dropwise in a ratio of 1:5 into […] to form alginate beads. The alginate beads reduce the efficacy of bacterial clearance similar to that seen in the cystic fibrosis population. A 5.25×10^4 bacterial inoculum was administered to groups of 9 rats, intratracheally, with prepared alginate bacteria suspensions, under isoflurane anesthesia. […] Twelve hours after the last treatment, rats were euthanized and lungs collected for CFU determination.

E. coli ATCC 25922 = test: MIC with/without bovine pulmonary surfactant; assay type: cell-based; conditions: Escherichia coli
Experimental: as §1, §2, §3, §4

[6] = 2.5% v/v BPS, read-out: MIC, Resazurin: +BPS
[7] = no BPS, read-out: MIC, Resazurin
[8] = ATCC29213, 2.5% v/v BPS, read-out: MIC, Resazurin: +BPS
[9] = ATCC29213, no BPS, read-out: MIC, CLSI
[10] = ATCC29213, no BPS, read-out: MIC, Resazurin

## COc1cc(Cc2cnc(N)nc2N)c2c(c1OC)OC(C1CC1)C=C2 (racemic) [iclaprim mesylate, 5-[(2RS)-2-cyclopropyl-7,8-dimethoxy-2Hchromen-5-ylmethyl] pyrimidine-2,4-diamine methanesulfonate]
[1]
  pH value: 4.2
mouse
  HED of lowest lethal IV dose: 6.1 mg/kg
  lowest lethal IV dose: 75 mg/kg
Male and female rats
  HED of NOAEL: 3.9 mg/kg/day
  dosage with histopathological changes at the injection sites: ≥ 10 mg/kg/day
Female mini-pigs
  HED of maximum tolerated single IV dose: 14.6 mg/kg
  maximum tolerated single IV dose: 20 mg/kg

## CCCCCCCCCC(=O)N[C@@H](Cc1c[nH]c2ccccc12)C(=O)N[C@H](CC(N)=O)C(=O)N[C@@H](CC(=O)O)C(=O)N[C@@H]1C(=O)NCC(=O)N[C@@H](CCCN)C(=O)N[C@@H](CC(=O)O)C(=O)N[C@H](C)C(=O)N[C@@H](CC(=O)O)C(=O)NCC(=O)N[C@H](CO)C(=O)N[C@@H]([C@H](C)CC(=O)O)C(=O)N[C@@H](CC(=O)c2ccccc2N)C(=O)O[C@@H]1C [daptomycin]
[2]; [6]
  MIC: > 16 µg/mL
[2]; [7]
  MIC: 0.25 µg/mL (≈ 0.154 µM)
S. aureus ATCC 29213; [8]
  MIC: > 16 µg/mL
S. aureus ATCC 29213; [9]
  MIC: 0.5 µg/mL (≈ 0.309 µM)
S. aureus ATCC 29213; [10]
  MIC: 0.5 µg/mL (≈ 0.309 µM)
[3]
  MIC: > 16 µg/mL
[4]
  MIC: > 16 µg/mL
E. faecalis ATCC 29212
  MIC: > 16 µg/mL
E. faecalis ATCC 33186
  MIC: > 16 µg/mL

## CN[C@H](CC(C)C)C(=O)N[C@H]1C(=O)N[C@@H](CC(N)=O)C(=O)N[C@H]2C(=O)N[C@H]3C(=O)N[C@H](C(=O)N[C@H](C(=O)O)c4cc(O)cc(O)c4-c4cc3ccc4O)[C@H](O)c3ccc(c(Cl)c3)Oc3cc2cc(c3O[C@@H]2O[C@H](CO)[C@@H](O)[C@H](O)[C@H]2O[C@H]2C[C@](C)(N)[C@H](O)[C@H](C)O2)Oc2ccc(cc2Cl)[C@H]1O [Vancomycin, vancomycin, reference compound]
[5]; vancomycin 1 g IV q12h, test of cure visit (12 of 23)
  cure rate, intent-to-treat population: 52.2%
[5]; vancomycin (5 of 23)
  death rate within 28 days of the start of treatment: 21.7%
S. aureus strain AH1252; 50 mg/kg SC/BID
  72 hour lungs log10CFU/Lung (CFU/gram of lung): 5.30
  Change in CFUs from 2 hr. infection controls: 2.18 log 10 CFU
  Change in CFUs from 72 hr. infection controls: −3.38 log 10 CFU
S. aureus strain AH1252; 50 mg/kg SC/BID (100 mg/kg/day) 3 days
  Survival >60 hrs: 8/9
S. aureus strain AH1252; vancomycin 50 mg/kg SC/BID
  CFU reduction from the 72 hour infection controls: 3.38 log 10 CFU

## C[C@H]1COc2c(N3CCN(C)CC3)c(F)cc3c(=O)c(C(=O)O)cn1c23 [levofloxacin]
[2]; 2.5% v/v BPS, read-out: MIC, CLSI: +BPS
  MIC: 0.25 µg/mL (≈ 0.692 µM)
[2]; [6]
  MIC: 0.25 µg/mL (≈ 0.692 µM)
[2]; no BPS, read-out: MIC, CLSI
  MIC: 0.25 µg/mL (≈ 0.692 µM)
[2]; [7]
  MIC: 0.25 µg/mL (≈ 0.692 µM)
S. aureus ATCC 29213; ATCC29213, 2.5% v/v BPS, read-out: MIC, CLSI: +BPS
  MIC: 0.12 µg/mL (≈ 0.332 µM)
S. aureus ATCC 29213; [8]
  MIC: 0.12 µg/mL (≈ 0.332 µM)
S. aureus ATCC 29213; [9]
  MIC: 0.25 µg/mL (≈ 0.692 µM)
S. aureus ATCC 29213; [10]
  MIC: 0.25 µg/mL (≈ 0.692 µM)
E. coli ATCC 25922; ATCC25922, 2.5% v/v BPS, read-out: MIC, CLSI: +BPS
  MIC: 0.03 µg/mL (≈ 0.083 µM)
E. coli ATCC 25922; ATCC25922, 2.5% v/v BPS, read-out: MIC, Resazurin: +BPS
  MIC: 0.03 µg/mL (≈ 0.083 µM)
E. coli ATCC 25922; ATCC25922, no BPS, read-out: MIC, CLSI
  MIC: 0.015 µg/mL (≈ 0.0415 µM)
E. coli ATCC 25922; ATCC25922, no BPS, read-out: MIC, Resazurin
  MIC: 0.015 µg/mL (≈ 0.0415 µM)
E. faecalis ATCC 33186
  MIC: 2 µg/mL (≈ 5.53 µM)
